Measured values published in US20190150455A1, “COMPOSITIONS OF SAPONINS AND PLANT EXTRACTS” (Y&B MOTHER'S CHOICE LTD., priority 2016, published 2019).

Test system: E. coli, S. aureus, P. aeruginosa, C. albicans and A. Brasiliensis
Assay: Challenge test, statements on all tested microorganisms together
Type: cell-based
Conditions: non-preserved cream
Experimental: The various lotion or cleansing formulae were contaminated by suitable microorganisms (bacteria and yeast), as described below. The so-prepared samples were incubated as described below. Using serial dilutions and plate counts, aliquots were taken during the incubation period for determining microorganism count. Tested Microorganisms: E. coli (ATCC 8739); S. aureus (ATCC 6538); P. aeruginosa (ATCC 9027); C. albicans (ATCC 10231) and A. Brasiliensis (ATCC 16404)). Bacteria, yeast, and mold suspensions were prepared according to ISO 11930; TSA culture medium for the bacteria was obtained from Hylab (Cat. No PD-087/A); PDA culture medium for A. brasiliensis was obtained from Hylab (Cat. No PD-043); SDA culture medium for C. albicans was obtained from Hylab (Cat. No PD-044); 0.1% peptone was prepared by mixing 1 g/l Peptone in sterile water. The test was performed according ISO 11930. Each sample was contaminated with microorganisms to obtain the range of 10^5-10^6 cfulml. The inoculated formulation was mixed thoroughly to ensure a homogeneous distribution of the inoculum. Samples were stored at 25° C. Each sample was sampled in intervals of 2, 7, 14, 21 and 28 days, according to the following procedure: 100 μl of the inoculated formulation was streaked on suitable agar medium. The plates were incubated at 37° C. for bacteria and 25° C. for yeast and mold. […]

## CCCCCCCC(=O)OCC(O)CO (stereo not shown) [glyceryl caprylate]
  Antimicrobial activity against the tested microorganisms, in words: improved the antimicrobial activity of the tested formulations
